Laboratory results as given in PubChem BioAssay (NCI).
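All cell lines were grown in 96-well plates and treated with compound for 48 hours. GI50 is the concentration that inhibits growth by half. TGI: concentration producing complete growth inhibition.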

Experiments:
Assay in all cases: DTP human tumour cell line panel, 48 h
A549 NSCLC = tested on: A549 NSCLC
COLO 205 colon = tested on: COLO 205 colon
DU-145 prostate = tested on: DU-145 prostate
HCT-15 colon = tested on: HCT-15 colon
HOP-92 NSCLC = tested on: HOP-92 NSCLC
HT29 colon = tested on: HT29 colon
NCI-H23 lung = tested on: NCI-H23 lung
NCI-H460 lung = tested on: NCI-H460 lung
OVCAR-3 ovarian = tested on: OVCAR-3 ovarian
RPMI-8226 leukemia = tested on: RPMI-8226 leukemia
SF-295 CNS = tested on: SF-295 CNS
SK-MEL-2 melanoma = tested on: SK-MEL-2 melanoma
SNB-19 CNS = tested on: SNB-19 CNS
SW-620 colon = tested on: SW-620 colon
U251 CNS = tested on: U251 CNS
UACC-257 melanoma = tested on: UACC-257 melanoma
UACC-62 melanoma = tested on: UACC-62 melanoma
RXF 393 renal = tested on: RXF 393 renal
HL-60(TB) leukemia = tested on: HL-60(TB) leukemia

| SMILES | TGI (A549 NSCLC) [µM] | TGI (COLO 205 colon) [µM] | TGI (DU-145 prostate) [µM] | TGI (HCT-15 colon) [µM] | TGI (HOP-92 NSCLC) [µM] | TGI (HT29 colon) [µM] | TGI (NCI-H23 lung) [µM] | TGI (NCI-H460 lung) [µM] | TGI (OVCAR-3 ovarian) [µM] | TGI (RPMI-8226 leukemia) [µM] | TGI (SF-295 CNS) [µM] | TGI (SK-MEL-2 melanoma) [µM] | TGI (SNB-19 CNS) [µM] | TGI (SW-620 colon) [µM] | TGI (U251 CNS) [µM] | TGI (UACC-257 melanoma) [µM] | TGI (UACC-62 melanoma) [µM] | TGI (RXF 393 renal) [µM] | TGI (HL-60(TB) leukemia) [µM] | GI50 (HOP-92 NSCLC) [µM] |
| --- | --- | --- | --- | --- | --- | --- | --- | --- | --- | --- | --- | --- | --- | --- | --- | --- | --- | --- | --- | --- |
| Cc1ccc(Cc2nn(C)c(=O)n2N)cc1 | > 100 | > 100 | > 100 | > 100 | > 100 | > 100 | > 100 | > 100 | > 100 | > 100 | > 100 | > 100 | > 100 | > 100 | > 100 | > 100 | > 100 |  |  |  |
| COc1ccc2[nH]c3c(c2c1)CC(=O)N1CCCC(CC3O)C1 (centres undefined) | > 100 | > 100 | > 100 | > 100 | > 100 | > 100 | > 100 | > 100 |  | > 100 | > 100 | > 100 | > 100 | > 100 | > 100 | > 100 | > 100 |  |  |  |
| CC(O)CN1c2ccccc2Sc2ccccc21 (centres undefined) | > 100 | > 100 | > 100 | > 100 | > 100 | > 100 | > 100 | > 100 | > 100 |  | > 100 |  | > 100 | > 100 | > 100 | > 100 | > 100 | > 100 |  |  |
| CC(=O)c1cc2c(s1)C(=O)c1sccc1C2=O | 0.433 | 2.63 | 0.0995 | 0.0534 | 0.746 | 0.426 | 0.0378 | 0.211 | 0.0382 | 0.191 | 0.0852 | 0.193 | 0.202 | 0.28 | 0.0556 | 0.0289 | 0.0898 | 0.0919 |  |  |
| CC12CCC(=O)N1c1cncnc1N2 (centres undefined) | > 10 |  | > 10 | > 10 | > 10 | > 10 | > 10 | > 10 | > 10 |  | > 10 | > 10 | > 10 | > 10 | > 10 | > 10 | > 10 |  | > 10 |  |
| C/C=C(/C)C(=O)O[C@H]1[C@H]2[C@@H]([C@@H](OC(C)=O)[C@H](C)C(=O)[C@@]34C[C@@H](C)C(=O)[C@]3(/C=C(\C)[C@H]1OC(C)=O)O4)C2(C)C |  | 5.32 | > 20 | 5.77 | 7.73 |  | > 20 | > 20 | 7.01 | 9.94 | > 20 | 11 | 18.4 | 6.41 | > 20 | 10.9 | 6.99 | 6.75 | 2.13 |  |
| CC(C)CCNC(=O)C(CC(C)C)NC(=O)[C@H]1O[C@@H]1C(=O)O (some centres undefined) | > 100 | > 100 | > 100 | > 100 | > 100 | > 100 | > 100 | > 100 | > 100 |  | > 100 |  | > 100 | > 100 | > 100 | > 100 | > 100 |  |  |  |
| COc1ccc2c(=O)cc(-c3ccc(OC)c(OC)c3OC)oc2c1 | > 31.6 | > 100 | > 100 | > 100 | > 100 | > 100 | > 100 | > 100 | > 87.6 | 53.9 | > 100 |  | > 100 | > 100 | > 100 | > 100 | > 100 | > 100 | > 62.4 |  |
| Cn1c(=O)c2nc3c(=O)n(C)c(=O)n(CC(N)=O)c3nc2n(C)c1=O |  | > 100 | > 100 | > 100 | > 100 | > 100 | > 100 | > 100 | > 100 | > 100 | > 100 | > 100 | > 100 | > 100 | > 100 | > 100 | > 100 | > 100 | > 100 |  |
| COc1ccc2nc3c([N+](=O)[O-])ccc4c3c(c2c1)NCCN4CCN(C)C | 2.19 |  | 4.91 | 1.94 | 2.73 | 2.34 | 2.86 | 1.46 | 2.4 | 4.62 | 1.69 | 2.92 | 2.27 | 1.98 | 2.54 | 4.58 | 1.96 | 2.38 |  |  |
| N#CC1=C2SCCN2C(=O)C(C#N)C12CCCCC2 (centres undefined) | > 100 | > 100 | > 100 | > 100 | > 100 | > 100 | > 100 | > 100 | > 100 | > 100 | > 100 | > 100 | > 100 | > 100 | > 100 | > 100 | > 100 | > 100 |  |  |
| O=C(Cc1ccccc1)NN1C(=O)/C(=C\c2cccc([N+](=O)[O-])c2)SC1=Nc1ccccc1 | > 100 | > 100 | > 100 | > 100 | > 100 | > 100 | > 100 | > 100 | > 100 | > 100 | > 100 | > 100 | > 100 | > 100 | > 100 | > 100 | > 100 | > 100 |  |  |
| CCOC(=O)Cn1c2ccc(Br)cc2c2nc3ccccc3nc21 | > 100 | > 100 | > 100 |  | > 100 | > 100 | > 100 |  | > 100 | > 100 | > 100 | > 100 | > 100 | > 100 | > 100 | > 100 | > 100 | > 100 |  |  |
| Cc1c2c(nc3ccccc13)C(=O)c1cccnc1C2=O | 21.7 | 48.7 | > 100 | > 100 | > 100 | 54.2 | 73.1 | 13.1 | 43.9 | > 100 | 97.1 |  | 92.3 | > 100 | > 100 | 27.2 | 10.1 | > 100 | 41.4 |  |
| CC1C2CC(CC2(C)O)C1(C)C (centres undefined) | > 100 | > 100 | > 100 |  | > 100 | > 100 | > 100 | > 100 | > 100 |  | > 100 |  | > 100 | > 100 | > 100 | > 100 | > 100 | > 100 | > 100 |  |
| C[C@@H]1C(=O)O[C@H]1[C@H](O)CO | > 100 | > 100 | > 100 | > 100 | > 100 |  | > 100 | > 100 | > 100 | > 100 | > 100 | > 100 | > 100 | > 100 | > 100 | > 100 | > 100 | > 100 | > 100 |  |
| CC1(C)C2CCC1(C)C(OC(=O)/C=C/C(=O)OC1CC3CCC1(C)C3(C)C)C2 (centres undefined) | > 100 | > 100 | > 100 | > 100 | > 100 | > 100 | > 100 | > 100 | > 100 |  | > 100 | > 100 | > 100 | > 100 | > 100 | > 100 | > 100 | > 100 | 40.7 |  |
| C[Si](C)(C)c1ccc(-c2c3ccc(-c4cc(Br)cc(Br)c4)nc3nc3nc(-c4cc(Br)cc(Br)c4)ccc23)cc1 | > 100 | > 100 | > 100 | > 100 | > 100 |  | > 100 | > 100 | > 100 | > 100 | > 100 | > 100 | > 100 |  | > 100 | > 100 | > 100 |  |  |  |
| CC[C@]12C=CCN3CCC4(c5cc([C@@]6(C(=O)OC)CC7CN(CCc8c6[nH]c6ccccc86)C[C@@H]6CCCC[C@H]76)c(OC)cc5N(C)C4[C@](O)(C(=O)OC)C1OC(C)=O)[C@@H]32 (some centres undefined) | 14.6 | < 0.01 | 14.8 | 12.5 | 16.9 | < 0.01 | < 0.01 | 0.0425 |  | 32.1 |  | 7.85 | 18.1 | 16 | < 0.01 |  | 17.8 |  |  | 0.0672 |
| O=c1cc(NNCc2ccccc2)[nH]c(=O)[nH]1 | > 100 | > 100 | > 100 | > 100 | > 100 | > 100 | > 100 | > 100 | > 100 | > 100 | > 100 |  | > 100 | > 100 | > 100 | > 100 |  | > 100 | > 100 |  |
| O=C(NCCC1CN(C(=O)OCc2ccccc2)c2ccccc21)OCc1ccccc1 (centres undefined) | > 100 | > 100 | > 100 | > 100 | > 100 | > 100 | > 100 | > 100 | > 100 | > 100 | > 100 | > 100 | > 100 | > 100 | > 100 | > 100 | > 100 | > 100 |  |  |
| C=CCC1(Sc2ccccn2)Sc2ccc3ccccc3c2-c2c(ccc3ccccc23)S1 | > 100 | > 100 | > 100 | > 100 | > 100 | > 100 | > 100 | > 100 | > 100 |  | > 100 | > 100 | > 100 | > 100 | > 100 | > 100 | > 100 | > 100 | > 100 |  |
| CCOC(=O)CC[C@H](NC(=O)N[C@H](C)c1ccccc1)C(=O)OCC | > 100 | 32.7 | > 100 | > 100 | 39.3 | > 100 | > 100 | > 100 | 41.5 | > 100 | > 100 | 52.8 | > 100 | > 100 | > 100 | 46.6 | 34.8 |  | > 100 |  |
| O=c1[nH]c(N/N=C\C(=N/Nc2nc3ccccc3c(=O)[nH]2)C(O)C(O)C(O)CO)nc2ccccc12 (centres undefined) | > 100 | > 100 | > 100 | > 100 | > 100 | > 100 | > 100 | > 100 | > 100 | > 100 | > 100 | > 100 | > 100 | > 100 | > 100 | > 100 | > 100 |  | > 100 |  |
| C/C(N)=C/C(=O)c1[nH]c(C(=O)O)cc1C1CCN(Cc2ccccc2)C1=O (centres undefined) | > 100 | 65.1 | 84.3 | > 100 | 55 | > 100 | 47.9 | > 100 | 55.6 | 44.7 | 49.6 | 77.6 | > 100 | > 100 | > 100 | 78.5 | 55.6 | 45.2 |  |  |
| CN(C)Cc1cc(C(=O)/C=C/c2ccc(Cl)c(Cl)c2)cc(CN(C)C)c1O | 8.47 | 2.65 | 15.9 | 12.7 | 3.85 | 2.79 | 19.9 | 7.9 | 5.46 | > 100 | 12.1 |  | 11.6 | 3.19 | 13.6 | 5.1 |  | 11.1 | > 100 |  |
